# Source: US20060183202A1 (priority 2003, published 2006)
# What was measured:
# [1] = tested on: DOGT1 promoter (PDOGT1-GUS); set-up: species or system Arabidopsis thaliana; conditions: in vivo
# DOGT1 mRNA expression = tested on: DOGT1 mRNA expression; set-up: species or system Arabidopsis thaliana; conditions: in vivo
# [2] = tested on: Saccharomyces cerevisiae strain YZGA452; type: cell-based
# wheat ribosomes = type: biochemical
# UGT73C4 = UGT73C4 (Arabidopsis thaliana, UniProt Q9ZQ97); type: cell-based
# Chain of UGT73C4 (Q9ZQ97 whole entry, looked up): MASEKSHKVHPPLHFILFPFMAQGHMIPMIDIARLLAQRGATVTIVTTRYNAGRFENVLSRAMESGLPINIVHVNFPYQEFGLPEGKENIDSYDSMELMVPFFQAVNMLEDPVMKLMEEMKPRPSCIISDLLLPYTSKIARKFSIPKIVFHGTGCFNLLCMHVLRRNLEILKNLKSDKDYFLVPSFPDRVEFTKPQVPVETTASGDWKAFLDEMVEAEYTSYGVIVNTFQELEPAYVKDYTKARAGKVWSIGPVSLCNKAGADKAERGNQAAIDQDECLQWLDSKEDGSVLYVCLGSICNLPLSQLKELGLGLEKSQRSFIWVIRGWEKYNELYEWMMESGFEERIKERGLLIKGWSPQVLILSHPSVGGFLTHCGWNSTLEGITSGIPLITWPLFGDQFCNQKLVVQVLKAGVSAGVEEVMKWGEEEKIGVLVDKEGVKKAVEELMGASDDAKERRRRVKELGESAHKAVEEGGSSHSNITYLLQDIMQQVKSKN
# DOGT1 (UGT73C5) = DOGT1 (UGT73C5) (Arabidopsis thaliana, UniProt Q9ZQ94); type: cell-based
# Chain of DOGT1 (UGT73C5) (Q9ZQ94 whole entry, looked up): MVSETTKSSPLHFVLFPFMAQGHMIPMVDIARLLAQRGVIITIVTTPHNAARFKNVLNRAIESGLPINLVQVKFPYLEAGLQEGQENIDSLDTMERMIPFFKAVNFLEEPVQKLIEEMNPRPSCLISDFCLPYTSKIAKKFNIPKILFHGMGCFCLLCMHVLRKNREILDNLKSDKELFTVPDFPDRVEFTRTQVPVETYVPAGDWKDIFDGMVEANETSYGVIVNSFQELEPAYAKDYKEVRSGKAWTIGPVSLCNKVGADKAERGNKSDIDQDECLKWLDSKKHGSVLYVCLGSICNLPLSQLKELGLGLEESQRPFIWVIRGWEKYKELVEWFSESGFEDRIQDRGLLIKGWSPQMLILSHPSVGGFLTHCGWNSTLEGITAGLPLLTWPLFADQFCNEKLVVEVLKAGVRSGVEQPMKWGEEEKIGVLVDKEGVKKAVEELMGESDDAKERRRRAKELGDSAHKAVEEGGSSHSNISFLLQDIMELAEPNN
# [3] = tested on: A. thaliana wild-type Col-0; conditions: in vivo
# laboratory animals = conditions: in vivo; cited from earlier work
# coleoptile elongation = conditions: in vivo; cited from earlier work
molecule,measurement,setting,value
"CC/C=C\C[C@H]1C(=O)CC[C@@H]1CC(=O)O [JA, jasmonic acid]",induction of PDOGT1-GUS reporter expression,[1],No induction
same,induction of DOGT1 transcript (RT-PCR),DOGT1 mRNA expression,weak induction
"CC1=C[C@H]2O[C@@H]3[C@H](O)C[C@](C)([C@@]2(CO)[C@H](O)C1=O)[C@]31CO1 [DON, deoxynivalenol]",concentration sufficient to completely inhibit growth of yeast,[2],180 ppm
same,induction of PDOGT1-GUS reporter expression,[1],induce
same,luminescence remaining (luciferase activity of control),wheat ribosomes,3.1%
same,reporter enzyme (luciferase) activity compared to the control (100%),wheat ribosomes,36.8%
same,resistance to the toxin conferred by UGT73C4 expression (detoxification),UGT73C4,had the ability to detoxify
same,induction of DOGT1 transcript (RT-PCR),DOGT1 mRNA expression,DON inducible expression
same,resistance to the toxin conferred by DOGT1 expression (detoxification),DOGT1 (UGT73C5),protects against
same,main phytotoxic effect on wild-type plants,[3],slow germination
veruccarin A [VA],resistance to the toxin conferred by UGT73C4 expression (detoxification),UGT73C4,failed to confer resistance
"O=C(O)c1ccccc1O [SA, salicylic acid]",induction of PDOGT1-GUS reporter expression,[1],No induction
same,induction of DOGT1 transcript (RT-PCR),DOGT1 mRNA expression,rather weakly
diacetoxyscirpenol [DAS],resistance to the toxin conferred by UGT73C4 expression (detoxification),UGT73C4,failed to confer resistance
"CC1=CC2OC3C(O[C@@H]4O[C@H](CO)[C@@H](O)[C@H](O)[C@H]4O)CC(C)(C34CO4)C2(CO)C(O)C1=O (stereo partly drawn) [DON-3-glucoside, 3-β-D-Glucopyranosyl-4-deoxynivalenol]",inhibition of luciferase activity,wheat ribosomes; 20 µM,8%
"CC(=O)OC[C@]12C[C@H](OC(=O)CC(C)C)C(C)=C[C@H]1O[C@@H]1[C@H](O)[C@@H](O)[C@@]2(C)[C@]12CO2 [HT-2-toxin, HT-2 toxin]",resistance to the toxin conferred by UGT73C4 expression (detoxification),UGT73C4,failed to confer resistance
"CC1=C[C@H]2O[C@@H]3[C@H](O)[C@@H](O)[C@](C)([C@@]2(CO)[C@H](O)C1=O)[C@]31CO1 [NIV, nivalenol]",toxicity compared with DON in animal systems,laboratory animals,higher toxicity
same,resistance to the toxin conferred by UGT73C4 expression (detoxification),UGT73C4,failed to confer resistance
same,resistance to the toxin conferred by DOGT1 expression (detoxification),DOGT1 (UGT73C5),lack of activity
"C/C=C\C(=O)O[C@@H]1C[C@H]2O[C@@H]3C=C(C)C(=O)C[C@]3(C)[C@]1(C)[C@]21CO1 [TTC, trichothecin]",resistance to the toxin conferred by UGT73C4 expression (detoxification),UGT73C4,failed to confer resistance
"CC(=O)OC[C@]12[C@H](O)C(=O)C(C)=C[C@H]1O[C@@H]1[C@H](O)C[C@@]2(C)[C@]12CO2 [15-ADON, 15-acetyl-deoxynivalenol]",resistance to the toxin conferred by UGT73C4 expression (detoxification),UGT73C4,had the ability to detoxify
same,resistance to the toxin conferred by DOGT1 expression (detoxification),DOGT1 (UGT73C5),protection
"CC(=O)O[C@@H]1C[C@]2(C)[C@@]3(CO)[C@H](O)C(=O)C(C)=C[C@H]3O[C@H]1[C@@]21CO1 [3-ADON, 3-acetyl-deoxynivalenol]",fold less toxic than DON to laboratory animals,laboratory animals,about 2 fold
same,resistance to the toxin conferred by UGT73C4 expression (detoxification),UGT73C4,failed to confer resistance
same,resistance to the toxin conferred by DOGT1 expression (detoxification),DOGT1 (UGT73C5),inability to confer resistance
Acetyl-DON [ADON],overall toxicity compared with the non-acetylated form (DON),coleoptile elongation,equivalent
